Experimental data taken from patent publication US10183047B2, “Chromium-containing compositions in combination with Phyllanthus emblica and shilajit having synergistic effects for improving endothelial function and cardiovascular health” (Natreon, Inc., priority 2014, dated 2019).

How the values were obtained:
Assay type in all cases: in vivo, human
[1] = test system: high sensitivity C-reactive protein (hsCRP); experiment: hsCRP by ELISA, type 2 diabetics; details: for hsCRP: DM, 400 mcg; for Mean percentage change in hsCRP / hsCRP Post Tt / hsCRP Pre Tt: type 2 diabetics (Example 3), chromium products 400 mcg; for Mean percentage change in hsCRP: 12 week treatment; for hsCRP Post Tt: post-treatment, 12 weeks; for hsCRP Pre Tt: pre-treatment
Procedure: The present clinical study is a prospective, randomized, double blind, placebo-controlled study. Patients of either sex, aged 30-65 years, fasting plasma glucose of 110-126 mg/dl, a glycosylated hemoglobin (HbA1c) between 6.5% and 8% and taking stable dose of anti-diabetic treatment (metformin 1500-2000 mg/day) for the past 8 weeks prior to the screening visit; and having endothelial dysfunction defined as ≤6% change in reflection index (RI) on post salbutamol challenge test were included in the study. Patients with severe uncontrolled hyperglyceamia, uncontrolled hypertension, cardiac arrhythmia, impaired hepatic or renal function, history of malignancy or stroke, smoking, chronic alcoholism, any other serious disease requiring active treatment and treatment with any other herbal supplements, were excluded from the study.
After screening, all the eligible subjects were randomized to receive either one of the three treatments orally for duration of 12 weeks—Group1—one capsule of Crominex®3+, 200 mcg once daily, Group 2—one capsule Crominex®3+, 400 mcg once daily; Group 3—one capsule of placebo once daily.
Subjects were required for follow up at 4, 8 and 12 weeks of therapy. At each visit they were evaluated for efficacy and safety. Pharmacodynamic evaluation for endothelial function was conducted at every visit. Blood samples were collected for evaluation of biomarkers before and at the end of treatment. Safety lab investigations for hematological, hepatic and renal biochemical parameters were conducted before and at the end of the study and also as and when required (in case of any adverse drug reaction (ADR). Subjects were enquired for the presence of ADR and the same was recorded in the case report form. Compliance to therapy was assessed by pill count method.
(§1) Nitric oxide, MDA, Glutathione and levels were estimated spectrophotometrically as follows. Malondialdehyde (MDA) levels were determined as described in Vidyasagar, et al., “Oxidative stress and antioxidant status in acute organophosphorous insecticide poisoning,” Indian J. Pharmacol. (April 2004) 36(2): 76-79. Glutathione levels were determined as described in G. L. Ellman, Arch. Biochem. Biophys. (1959) 82: 70-77 (original determination). Nitric oxide levels were estimated spectrophotometrically as described in Miranda, et al., “A Rapid, Simple Spectrophotometric Method for Simultaneous Detection of Nitrate and Nitrite,” NITRIC OXIDE: Biology and Chemistry (2001) Vol. 5, No. 1, pp. 62-71. hsCRP (high sensitivity C-reactive protein) was determined by ELISA method.
(§2) When the results with Crominex® 3+ in the above two examples were highly significant, especially with the 400 mcg once daily dose in type 2 diabetics, two more clinical studies (EXAMPLES 3 & 4) were conducted at the same institute, following the same methodology as described earlier, on the individual components of Crominex® 3+, i.e., chromium chloride and Phyllanthus emblica+Shilajit, and other chromium supplements available in the market, i.e., chromium picolinate, chromium polynicotinate and chromium dinicocysteinate, in type 2 diabetics as well as in subjects with metabolic syndrome symptoms.

fasting plasma glucose = experiment: Fasting plasma glucose, type 2 diabetics; details: for Fasting Glucose: DM, 400 mcg; for Fasting Plasma Glucose Post Tt / Fasting Plasma Glucose Pre Tt: type 2 diabetics (Example 3), chromium products 400 mcg; for Fasting Plasma Glucose Post Tt: post-treatment, 12 weeks; for Fasting Plasma Glucose Pre Tt: pre-treatment
Procedure: as §2

nitric oxide (NO) = experiment: Nitric oxide level, metabolic syndrome subjects; details: for NO: MS, 400 mcg; for NO Post Tt / Mean percentage change in NO / NO Pre Tt: metabolic syndrome subjects (Example 4), chromium products 400 mcg; for NO Post Tt: after 12 weeks of treatment; for Mean percentage change in NO: after 12 weeks treatment; for NO Pre Tt: pre-treatment
Procedure: as §1
(§3) Patients included in the study, were of either gender, aged 30-68 years, having endothelial dysfunction defined as ≤6% change in reflection index (RI) on post salbutamol challenge test and central obesity as defined by The International Diabetes Federation guidelines, dated 2006, and any two of the following conditions:
(§4) After screening, all the eligible subjects were randomized to receive either one of the three treatments orally for duration of 12 weeks: group 1—one capsule of Crominex®3+ 200 mcg once daily; group 2—one capsule 400 mcg once daily; group 3—one capsule of Placebo once daily.
(§5) Subjects were reviewed for follow up at 4 weeks, 8 and 12 weeks of therapy. At each visit they were evaluated for efficacy and safety. Pharmacodynamic evaluation for endothelial function was conducted at baseline and end of treatment. Blood samples were collected for evaluation of biomarkers before and at end of treatment. Safety lab investigations for hematological, hepatic and renal biochemical parameters were conducted before and at the end of the study and also as and when required (in case of any adverse drug reaction (ADR)). Subjects were enquired for the presence of ADR and the same was recorded in the case report form. Compliance to therapy was assessed by pill count method.
(§6) Assessment of endothelial function, biomarkers, safety parameters and primary and secondary efficacy parameters and data analysis were performed as described under the study with type 2 diabetic subjects in Example 1.
as §2

glutathione (GSH) = experiment: Glutathione level, metabolic syndrome subjects; details: for GSH: MS, 400 mcg; for GSH Post Tt / Mean percentage change in GSH / GSH Pre Tt: metabolic syndrome subjects (Example 4), chromium products 400 mcg; for GSH Post Tt: after 12 weeks of treatment; for Mean percentage change in GSH: after 12 weeks treatment; for GSH Pre Tt: pre-treatment
Procedure: as §1, §3, §4, §5, §6, §2

[2] = test system: high sensitivity C-reactive protein (hsCRP); experiment: hsCRP by ELISA, metabolic syndrome subjects; set-up: hsCRP Pre Tt / hsCRP Post Tt: unit not given here; details: for hsCRP: MS, 400 mcg; for hsCRP Post Tt / Mean percentage change in hsCRP / hsCRP Pre Tt: metabolic syndrome subjects (Example 4), chromium products 400 mcg; for hsCRP Post Tt: after 12 weeks of treatment; for Mean percentage change in hsCRP: after 12 weeks treatment; for hsCRP Pre Tt: pre-treatment
Procedure: as §1
as §3, with “conditions: […]” for “conditions:”
as §5, §6, §2

[3] = Blood pressure, metabolic syndrome subjects; details: metabolic syndrome subjects (Example 4), chromium products 400 mcg; for Diastolic blood pressure Post Tt / Systolic blood pressure Post Tt: after 12 weeks of treatment; for Diastolic blood pressure Pre Tt / Systolic blood pressure Pre Tt: pre-treatment
Description: as §3, §4, §5, §2

Row | Molecule | hsCRP [1] | Mean percentage change in hsCRP [1] | hsCRP Post Tt [1] | hsCRP Pre Tt [1] | Fasting Glucose (fasting plasma glucose) | Fasting Plasma Glucose Post Tt (fasting plasma glucose) | Fasting Plasma Glucose Pre Tt (fasting plasma glucose) | NO (nitric oxide (NO)) | NO Post Tt (nitric oxide (NO)) | Mean percentage change in NO (nitric oxide (NO)) | NO Pre Tt (nitric oxide (NO)) | GSH (glutathione (GSH)) | GSH Post Tt (glutathione (GSH)) | Mean percentage change in GSH (glutathione (GSH)) | GSH Pre Tt (glutathione (GSH)) | hsCRP [2] | Mean percentage change in hsCRP [2] | Diastolic blood pressure Post Tt [3] | Systolic blood pressure Post Tt [3] | Diastolic blood pressure Pre Tt [3] | other results
1 | chromium dinicocysteinate | −8.61% | −8.61 ± 12.40 #@NS % | 2.56 ± 0.58 @ mg/L | 2.79 ± 0.53 mg/L | −3.2% | 132.3 ± 4.41 $ mg/dL | 136.8 ± 6.99^ mg/dL | 7.68% | 32.66 ± 3.88 μM/L | 7.68 ± 2.25% | 30.33 ± 3.58 μM/L | 5.4% | 558.38 ± 33.94 μM/L | 5.41 ± 1.38% | 529.89 ± 33.97 μM/L | −13.76% | −13.76 ± 4.64% | 78.8 ± 2.67 NS mmHg | 122.0 ± 2.66 NS mmHg | 80.0 ± 2.99 mmHg | hsCRP Post Tt [2]: 2.24 ± 0.49; hsCRP Pre Tt [2]: 2.58 ± 0.48; Systolic blood pressure Pre Tt [3]: 124.8 ± 3.37 mmHg
2 | chromium picolinate | −18.9% | −18.90 ± 7.04@$NS % | 2.22 ± 0.64 mg/L | 2.70 ± 0.63 mg/L | 1.2% | 134.84 ± 6.78 NS mg/dL | 133.21 ± 8.27 mg/dL | 13.9% | 32.94 ± 3.79 μM/L | 13.92 ± 2.65% | 28.94 ± 3.56 μM/L | 7.1% | 550.63 ± 26.21 μM/L | 7.07 ± 1.95% | 514.35 ± 25.09 μM/L | −19.45% | −19.45 ± 2.98% | 78.1 ± 2.26 NS mmHg | 121.5 ± 4.15 NS mmHg | 79.2 ± 3.58 mmHg | hsCRP Post Tt [2]: 2.15 ± 0.40; hsCRP Pre Tt [2]: 2.67 ± 0.44; Systolic blood pressure Pre Tt [3]: 123.1 ± 5.39 mmHg
3 | chromium polynicotinate | −11.45% | −11.45 ± 12.28 #NS % | 2.43 ± 0.49 mg/L | 2.75 ± 0.47 mg/L | 0.63% | 136.3 ± 7.86 NS mg/dL | 135.45 ± 7.45 mg/dL | 5.35% | 32.93 ± 4.66 μM/L | 5.35 ± 0.96% | 31.26 ± 4.46 μM/L | 5.1% | 549.43 ± 20.18 μM/L | 5.09 ± 1.36% | 522.92 ± 20.68 μM/L | −12.34% | −12.34 ± 2.16% | 79.7 ± 2.85 NS mmHg | 124.1 ± 4.88 NS mmHg | 81.2 ± 3.07 mmHg | hsCRP Post Tt [2]: 2.42 ± 0.54; hsCRP Pre Tt [2]: 2.76 ± 0.58; Systolic blood pressure Pre Tt [3]: 125.9 ± 5.17 mmHg
4 | O.O.O.O.O.O.[Cl][Cr]([Cl])[Cl] [Chromium chloride, Chromium chloride (CrCl3.6H2O)] | −9.92% | −9.92 ± 3.86 #$NS % | 2.46 ± 0.55 mg/L | 2.72 ± 0.53 mg/L | 0.87% | 134.21 ± 9.32 NS mg/dL | 133.05 ± 7.95 mg/dL | 5.5% | 30.99 ± 4.46 μM/L | 5.50 ± 1.73% | 29.39 ± 4.43 μM/L | 4.2% | 542.56 ± 46.51 μM/L | 4.17 ± 1.80% | 521.35 ± 49.06 μM/L | −11% | −10.99 ± 3.29% | 79.8 ± 2.66 NS mmHg | 122.9 ± 3.42 NS mmHg | 80.6 ± 2.67 mmHg | Systolic blood pressure Pre Tt [3]: 124.7 ± 3.35 mmHg
